This passage reports melting point results from a melting point compilation (Tetko et al.; mined from patent text by program, amines drawn as free bases though some values may be those of a salt).

Broadly, the melting point is the temperature, or range, at which the solid turns liquid. Regarding `COc1ccc(OC(=O)c2ncn3c2[C@@H]2CCCN2C(=O)c2c(Cl)cccc2-3)cc1`, the melting point was 210 to 211 °C. The value for `COC(=O)CN1CCC(NC(=O)OC(C)(C)C)CC1` was 96 to 98 °C; that for `Cc1c(CNCC(C)(C)C)n(C)c2ccc(NC(=O)c3ccc(OC[C@@H]4CCCO4)cc3)cc12` was 165 to 166 °C; that for `OC(Cn1cncn1)(c1ccc(F)cc1F)C(F)(F)C(F)(F)F` (stereo unspecified) was 95 to 96 °C. The value for `COC(=O)c1ccc(Cl)cc1C1(c2ccccc2F)OCC(CCl)O1` (stereo unspecified) was 117 to 122 °C. In the case of `CCC1(CO)C=NC(c2nn(Cc3ccccc3F)c3ccccc23)O1` (stereo unspecified), the melting point was in the range of 137 to 139 °C. The value for `CN(C)C(=O)C(CCO)C1CCc2c1[nH]c1ccccc21` (stereo unspecified) was 118 to 120 °C; that for `CC(C)n1nc(-c2cnc(N)nc2-c2cccc(Cl)c2)ccc1=O` was 236 to 237 °C. The value for `COc1ccc(-c2nc(Cl)cc(Cl)n2)cc1` was 127 to 128 °C.

Regarding `CN1CCc2cc[nH]c2C(c2ccccc2)C1` (stereo unspecified), the melting point lay in the range of 90 to 91 °C. In turn, `CC(=O)CSc1nc2ccc(Cc3ccccc3)cc2[nH]1` yielded a melting point of 102 °C.

As for `OC(CNc1cc(Cl)c(Cl)cc1Cl)Cn1ccnc1` (stereo unspecified), the melting point was in the range of 156 to 158 °C.

As for `CCCCCCCCCCOc1c(Br)sc(-c2nc3ccccc3s2)c1OCCCCCCCCCC`, the melting point fell in the range of 42 to 43 °C.

Consider `CNc1nc(SC)ncc1C`, for which the melting point turned out to be 134 °C. Then `O=[N+]([O-])c1cc(C(F)(F)F)ccc1Sc1nc(-c2ccc(Cl)cc2)c(-c2ccc(Cl)cc2)[nH]1`, with 264 to 266 °C; and `CNS(=O)(=O)c1cc(S(=O)(=O)NCc2ccccc2)c(Cl)cc1N`, with 151 to 152 °C. The value for `CC(NC(=O)C1CCCN1C(=O)CNP(=O)(Cc1ccccc1)Cc1ccccc1)C(=O)OCc1ccccc1` (stereo unspecified) was 77 to 80 °C; that for `O=CC1(Nc2ccccc2)CCN(CCc2ccccc2)CC1` was 83 to 84 °C; that for `CCOC(=O)Cn1c(-c2ccccc2)nc2cccnc21` was 93 to 95 °C. The value for `CCOC(=O)C(=CNc1ncnc2ccccc12)C(=O)OCC` was 115 to 117 °C; that for `CC(=O)NCC1CC1c1ccc(Cl)c2nn(C)cc12` (stereo unspecified) was 153 to 155 °C; that for `CN1CCN(c2ccc(O)c3c2C[C@H](N)CC3)CC1` was 238 to 239 °C. In the case of `COc1cc(CO)ccc1OCc1nc(-c2cccc(OS(C)(=O)=O)c2)oc1C`, the melting point was 140 to 141 °C. Then `Cc1cc(C)c2nc(C3CC3)n(Cc3ccc(C4(C(=O)O)CC=CC4)s3)c2n1`, with 184 to 185 °C; and `Cc1ccc(C)c(Oc2ccc(C#N)cc2S(=O)(=O)N2CCNCC2)c1`, with 60 to 72 °C.

In turn, `CN(Cc1ccccc1)Cc1c(-c2ccc([N+](=O)[O-])cc2)sc2c1c(=O)c(C(=O)c1ccccc1)cn2Cc1c(F)cccc1F` yielded a melting point of 197 to 199 °C. The value for `Cn1cc(C(=O)NCc2ccc(Cl)cc2)c(=O)c2cc(CN=[N+]=[N-])ccc21` was 219 to 220 °C; that for `O=C(O)COc1cccc2c1Cc1sc(S(=O)(=O)CCC(c3ccccc3)c3ccccc3)nc1-2` was 131 to 133 °C; that for `CC(=O)Nc1nc(C(F)(F)F)ns1` was 178 °C. The value for `CS(=O)(=O)c1ccc(-n2nc(C(F)(F)F)cc2-c2ccc(-c3ccco3)cc2F)cc1` was 223 to 225 °C; that for `Cc1ccc(S(=O)(=O)N(C)c2ccc(Cl)cc2N)cc1` was 102 °C. The value for `CN1c2cccc3cccc(c23)N(CCCN2CC=C(c3ccccc3)CC2)S1(=O)=O` was 146 °C. `CCCCCNc1c(C(=O)OCC)cnc2cn[nH]c12` showed a melting point of 153 to 155 °C. The value for `FC(F)(F)c1cc(CBr)c(C(F)(F)F)cc1CBr` was 80 to 81 °C; that for `N#Cc1ccc(CNc2cc(C(N)=O)c([N+](=O)[O-])cc2[N+](=O)[O-])cc1` was 201 to 203 °C; that for `O=C(Nc1ccc2nc(-c3ccccc3)oc2n1)c1ccccc1` was 191 to 192 °C. Then `NCCCc1ccc(SCCC(c2ccccc2)(c2ccccc2)c2ccccc2)cc1`, with 73 to 75 °C. Consider `Cc1nn(C)cc1C(=O)Nc1ccccc1-c1ccc(F)c(Cl)c1`, for which the melting point was in the range of 177 to 180 °C. The value for `NC(=O)[C@@H]1[C@H](Nc2c(Br)cnc3[nH]c(-c4cccc(CN5CCOCC5)c4)nc23)[C@H]2C=C[C@@H]1C2` was 184 to 185 °C; that for `C=Cn1cc(C(=O)OCC)c(=O)c2cc(F)c(N3CCC(NC(=O)C(F)(F)F)C3)nc21` (stereo unspecified) was 280 to 282 °C. `CS(=O)c1cc(CCC(=O)O)cc(-c2nc(=O)c3ccccc3s2)n1` (stereo unspecified) registered a melting point of 266 °C.

`COc1ccc(C(=O)Nc2c(Cl)cncc2Cl)c2c1OCCCCO2`: the melting point lay in the range of 115 to 117 °C. Then `CCOC(=O)CCC(CCCCNS(=O)(=O)c1ccc(Cl)cc1)CCOc1cccnc1` (stereo unspecified), with 90 to 93 °C; and `CCC(C)(C)N=C(NC#N)Nc1cc(F)cc(Cl)c1`, with 130 to 131 °C; and `O=Cc1ccc(OCc2cn(C(c3ccccc3)(c3ccccc3)c3ccccc3)cn2)cc1`, with 181 to 182 °C. The value for `COC(=O)c1ccc(Cn2ncc3ccc(NC(=O)OC4CCCC4)cc32)c(OC)c1` was 150 to 151 °C; that for `O=C1c2ccccc2C(=O)c2c(O)c(S(=O)(=O)c3ccccc3)cc(O)c21` was 258 to 260 °C. The value for `CC(=O)Cc1cccc2c1C(=O)c1ccccc1C2=O` was 198 to 200 °C; that for `COc1cc(OC)nc(Sc2cnn(C)c2NS(=O)(=O)CC#N)n1` was 147 to 148 °C; that for `COc1ccc(-c2cc(C(F)(F)F)n3cnc(C#N)c3n2)cc1` was 192 °C. As to `COc1ccc(CCCCOCc2cccc(/C=C/c3cccc(NC(=O)CCC(C)(C)C(=O)O)c3)n2)cc1`, the melting point lay within 141 to 142 °C. Then `COc1ccc(S(=O)(=O)Nc2ccccc2NC(=O)c2ccccc2[N+](=O)[O-])cc1`, with 168 to 170 °C; and `COC(=O)c1ncn2c1CN(C)C(=O)c1cc(F)ccc1-2`, with 195 to 196 °C. In turn, `CC(C)(C)C(O)C(CS(=O)(=O)c1ccccc1)n1cncn1` (stereo unspecified) displayed a melting point of 145 °C. The value for `CC1CCC(C(C)C)C(OC(=O)[C@@H](c2ccc(OCc3ccc4ccccc4n3)cc2)C2CCCCCC2)C1` (stereo partly specified) was 127 °C; that for `Cn1cc(C[C@H]2NC(=O)[C@@H](CCCN)NC2=O)c2ccccc21` was 148 °C. Then `NCc1cc(-c2csc(N=C(N)N)n2)ccn1`, with above 210 °C. Then `Cc1ccc(C2CC(N)=NN2c2ccccc2)cc1` (stereo unspecified), with 165 to 166 °C. On to `CC(=O)N(N=Nc1cc(C(F)(F)F)ccc1C#N)c1cc(C(F)(F)F)ccc1C#N`, for which the melting point lay in the range of 111 to 112 °C. `Fc1ccc(/C=C/C2=CCN(Cc3c[nH]c4ncccc34)CC2)cc1` had a melting point of 211 to 213 °C. Then `Cc1cc(Cl)ccc1OCC(=O)N1Cc2ccc(C(=O)c3ccc(-c4ccccc4)cc3)n2Cc2ccccc21`, with 102 to 105 °C. Then `OCc1nn(-c2ccc(F)cc2)c2c1CCCC2`, with 117 to 118 °C; and `CCCCCCCCCCOC(=O)C1=C(C)NC(N)=C(C(=O)OCC)C1c1cccc([N+](=O)[O-])c1` (stereo unspecified), with 190 to 191 °C; and `CC(C)(C)C(Cc1ccc(Br)cc1)C(=O)n1ccnc1` (stereo unspecified), with 101 to 102 °C. In the case of `Cn1cc(C(=O)Cl)c([N+](=O)[O-])n1`, the melting point lay in the range of 68 to 70 °C. The value for `COc1cc2c(cc1OC)[C@H]1CCCC[C@H]1N=C2c1ccc(C(C)=NO)cc1` was 189 to 192 °C; that for `NC(=O)NN=Cc1ccc(Oc2ccc3c(c2)OCO3)cc1` was 225 to 226 °C; that for `Cc1n[nH]c(=O)n1-c1ccc([N+](=O)[O-])cc1` was 226 °C. For the compound `CCc1ccnc(C(=O)c2[nH]c3ccc(Cl)cc3c2CC(=O)O)c1Cl`, the melting point is 220 °C. The value for `Cc1ccc(Sc2cncc3sc(C(=O)Nc4ccc(Cl)cc4)cc23)cc1` was 208 to 211 °C. Then `CN(C)CCc1cccc(N2C(=O)N(c3c(Cl)cccc3Cl)Cc3cnc(Nc4ccccc4)nc32)c1`, with 101 to 105 °C; and `[N-]=[N+]=NCc1ccc(C(=O)O)c(Cl)c1`, with 87 to 88 °C. The value for `O=C1N(Cc2ncccn2)c2ccccc2C12COc1cc3c(cc12)CCO3` (stereo unspecified) was 203 to 205 °C; that for `OC(CSc1ncccn1)CN1CCN(C(c2ccc(F)cc2)c2ccc(F)cc2)CC1` (stereo unspecified) was 75 to 76 °C; that for `COc1ccc(C(=O)N2CCCC2=O)cc1OC(=O)c1ccccc1` was 90.5 to 91 °C.

Turning to `O=c1c2ccc(Cl)cc2[nH]c2c(O)nn(Cc3cc4ccccc4s3)c(=O)c12`, the melting point was above 300 °C. The compound `OC1(C(c2ccccc2)c2ccccc2)CSC2=NCCCCN21` (stereo unspecified) registered a melting point of 123 to 125 °C. Then `O=CN(CCl)c1ccccc1`, with 67 °C. As for `NS(=O)(=O)c1ccc(-c2c(-c3ccccc3)noc2COCC(F)(F)C(F)(F)C(F)(F)CO[N+](=O)[O-])cc1`, the melting point is 38 to 39 °C.

As to `COC(=O)Cc1c(Cl)nc(C)nc1Nc1ccccc1`, the melting point lay in the range of 115 to 116 °C. The value for `Nc1cc(C(=O)c2ccc(F)c(N)c2)ccc1F` was 131 to 132 °C; that for `CCCCOc1cc(CCC(=O)O)ccc1-c1cccc(N(C)C(=O)Nc2ccccc2)c1` was 134 to 136 °C; that for `CC(C)(C)OC(=O)N1CCc2c(n(CCOc3ccccc3)c3ccc(Cl)c(Cl)c23)CC1` was 175 to 176 °C. As to `OC(c1ccccc1)c1cccnn1` (stereo unspecified), the melting point was 130 to 135 °C. The value for `COc1ccc(Cl)cc1C(=O)NCCc1ccc(-c2ccc(F)cc2)c(S(N)(=O)=O)c1` was 195 °C.

Consider `CNC1(C)CN(c2c(F)cc3c(=O)c(C(=O)O)cn(C4CC4)c3c2F)C1`, for which the melting point is above 300 °C.
